pIC50: −log10 of the molar value.
Experiments:
[1] = Pharmacokinetic parameters; assay type: in vivo; conditions: in vivo
L929 cells = experiment: TNF High Throughput Screen (TNF-α driven apoptosis assay); assay type: cell-based, mouse; conditions: Mus musculus, human TNF-α + actinomycin D, read-out: TNFα IC50
Outline: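 Mouse L929 cells were pretreated with compound for 2 hours, then given human TNF-α plus actinomycin D (40 μg/ml final) overnight. Surviving cells were stained with crystal violet, solubilised in methanol and read at 595 nm. Values are % inhibition at 1 μM (0 = TNF alone, 100 = no TNF) or IC50 from sigmoidal fits of dilution series.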

male rats = experiment: Inflammatory Bowel Disease model: rat DNBS distal colitis; assay type: in vivo; conditions: 100 mg/kg orally, 7 doses
Procedure: Groups of three male rats weighing 150+/−10 g and fasted for 24 hours were used. Distal colitis was induced by intracolonic instillation of 0.5 ml/rat DNBS (2,4-dinitrobenzene sulfonic acid, 60 mg/ml in ethanol 30%) after which air (2 ml) was gently injected through the cannula to ensure that the solution remains in the colon. A test compound was administered orally 24 and 2 hours before DNBS-instillation and then daily for 5 days in a total of 7 doses. The animals were sacrificed 24 hours after the final dose of test compound administration and each colon was removed and weighed.

SJL mouse strain = experiment: Experimental Allergic Encephalitis (murine model of multiple sclerosis); assay type: in vivo
Procedure: SJL mouse strain were immunized subcutaneously with proteolipid peptide amino acid residues 139-151 in Complete Freund's Adjuvant. Pertussis toxin was injected intravenously on day 1 and 3 post-induction. Weight loss occurred at day 7 post-immunization with paralysis ensuing between days 9 and 14 post-immunization.

Structure (SMILES): N#Cc1cccc(C(C(=O)NCC(c2ccccc2)c2ccccc2)N(CCc2c[nH]cn2)C(=O)c2ccccc2C(=O)c2ccccc2)c1 (stereo not shown) [Compound 44]
- bioavailability ([1]; po, species not given): 26%
- half-life ([1]; unit and species not given, read-out: Pharmacokinetic Parameters t1/2 (converted)): 2.3 h
- pIC50 (L929 cells): 6.39
- Inflammatory Bowel Disease: Rat DNBS model % inhibition of colonic weight gain (male rats): 44 +/− 8 @ 100 mg/kg %
- % inhibition of disease (SJL mouse strain; Induction regimen, 15 mgs/kg/day/i.p. from day 1-21, P = 0.06): 44.0%
- activity disease severity score (ADSS) at last day of dosing, treated (vs. control) (SJL mouse strain; Induction regimen, 15 mgs/kg/day/i.p. from day 1-21, control 3.35): 1.9/3.35
- % Survival of treated (vs. % survival of controls) (SJL mouse strain; Induction regimen, 15 mgs/kg/day/i.p. from day 1-21, controls 50): 75 vs. 50%
- activity disease severity score (ADSS) at last day of dosing, treated (vs. control) (SJL mouse strain; Induction regimen, 75 mgs/kg/day/i.p. from day 1-21, control 3.35): 0.8/3.35
- % Survival of treated (vs. % survival of controls) (SJL mouse strain; Induction regimen, 75 mgs/kg/day/i.p. from day 1-21, controls 50): 100 vs. 50%
- % inhibition of disease (SJL mouse strain; Induction regimen, 75 mgs/kg/day/i.p. from day 1-21, p = 0.001): 75.7%
- activity disease severity score (ADSS) at last day of dosing, treated (vs. control) (SJL mouse strain; Oral therapeutic regimen, 75 mgs/kg/day/i.p. from day 7-28, control 4.4): 2.2/4.4
- % Survival of treated (vs. % survival of controls) (SJL mouse strain; Oral therapeutic regimen, 75 mgs/kg/day/i.p. from day 7-28, controls 20): 89 vs. 20%
- % inhibition of disease (SJL mouse strain; Oral therapeutic regimen, 75 mgs/kg/day/i.p. from day 7-28, p = 0.002): 50%
- activity disease severity score (ADSS) at last day of dosing, treated (vs. control) (SJL mouse strain; Therapeutic regimen, 15 mgs/kg/day/i.p. from day 7-21, control 4.6): 2.6/4.6
- % Survival of treated (vs. % survival of controls) (SJL mouse strain; Therapeutic regimen, 15 mgs/kg/day/i.p. from day 7-21, controls 11): 70 vs. 11%
- % inhibition of disease (SJL mouse strain; Therapeutic regimen, 15 mgs/kg/day/i.p. from day 7-21, p = 0.08): 43.5%
- activity disease severity score (ADSS) at last day of dosing, treated (vs. control) (SJL mouse strain; Therapeutic regimen, 75 mgs/kg/day/i.p. from day 7-21, control 4.6): 1.1/4.6
- % Survival of treated (vs. % survival of controls) (SJL mouse strain; Therapeutic regimen, 75 mgs/kg/day/i.p. from day 7-21, controls 11): 100 vs. 11%
- % inhibition of disease (SJL mouse strain; Therapeutic regimen, 75 mgs/kg/day/i.p. from day 7-21, p = 0.001): 76.1%
